From US20240376085A1 (Janssen Pharmaceutica NV, priority 2021, published 2024) come the findings set out here.

In one experiment the target is T1, IL-17A : IL-17RA binding (Homo sapiens, UniProt Q16552, K93Q).
T1 construct: Name: IL-17A-Flag
Kind of experiment: IL-17A(FLAG-tagged):IL-17RA(His-tagged) binding disruption Eu-HTRF assay, Protocol 1. The following applies: FLAG-IL-17A 2.5 nM at 2x final concentration; average if tested more than once. The gist of the method:
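IC50 came from a one-site competition fit of the acceptor/donor (665/620 nm) HTRF ratio. His-tagged IL-17RA, Eu-anti-FLAG and D2-anti-His were added after a 1 h rt compound preincubation with FLAG-tagged IL-17A dimer in PBS/0.01% Triton X-100, followed by 2 h at rt before reading.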
(TR-FRET usually uses a lanthanide donor and a delayed reading to cut background.)

For experiment [1], the system named is IL-17A-induced G-CSF production in human normal keratinocyte (NHK). Nature of the experiment: NHK assay: IL-17A-induced G-CSF production in normal human keratinocytes. In kind it is cell-based. Conditions: 24 h, IL-17A 5 ng/mL, average if tested more than once. The gist of the method:
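Compound titrations are first mixed with recombinant human IL-17A for 1 h at room temperature. The mixture goes onto adult normal human keratinocytes (final IL-17A 5 ng/mL, 5% FBS, 0.2% DMSO) for 24 h at 37 °C. Secreted G-CSF is then measured by HTRF and IC50 fitted.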

T1 sequence (Q16552 with tags, fused parts or gaps K93Q): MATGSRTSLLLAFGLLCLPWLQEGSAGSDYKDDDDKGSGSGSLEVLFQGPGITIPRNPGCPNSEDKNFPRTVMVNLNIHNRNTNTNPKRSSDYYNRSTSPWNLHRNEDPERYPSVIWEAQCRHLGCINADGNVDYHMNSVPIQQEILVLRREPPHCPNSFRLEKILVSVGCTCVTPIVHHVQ

For `Cc1nonc1C(=O)N[C@H](c1nc2ccc([C@H](NC(=O)CC3CC(F)(F)C3)C3CC3)cc2[nH]1)[C@@H]1C[C@@H]2[C@H](C1)C2(F)F` [Example 237, N—((S)-(6-((R)-Cyclopropyl(2-(3,3-difluorocyclobutyl)acetamido)methyl)-1H-benzo[d]imidazol-2-yl)((1R,3s,5S)-6,6-difluorobicyclo[3.1.0]hexan-3-yl)methyl)-4-methyl-1,2,5-oxadiazole-3-carboxamide], the half-maximal inhibitory concentration (IC50) on IL-17A : IL-17RA binding was less than 50 nM; in experiment [1] (Homo sapiens, Keratinocyte), 50 to 100 nM.

As for `C[C@@H](NC(=O)CCC(F)(F)F)c1ccc2[nH]c([C@@H](NC(=O)c3ccn(CCC(F)(F)F)n3)C3CCC(F)(F)CC3)nc2c1` [Example 2, N—[(S)-(4,4-Difluorocyclohexyl)-[6-[(1R)-1-(4,4,4-trifluorobutanoylamino)ethyl]-1H-benzimidazol-2-yl]methyl]-1-(3,3,3-trifluoropropyl)pyrazole-3-carboxamide], the half-maximal inhibitory concentration (IC50) was greater than 100 nM at IL-17A : IL-17RA binding and greater than 100 nM in experiment [1] (Homo sapiens, Keratinocyte).

In the case of `Cn1nccc1C(=O)N[C@H](c1nc2cc(C(NC(=O)CCC(F)(F)F)C3CCC3)ccc2[nH]1)C1CCC(F)(F)CC1` (single isomer, unassigned) [Example 42, N—((S)-(5-((S*)-Cyclobutyl(4,4,4-trifluorobutanamido)methyl)-1H-benzo[d]imidazol-2-yl)(4,4-difluorocyclohexyl)methyl)-1-methyl-1H-pyrazole-5-carboxamide], the 50% inhibitory concentration (IC50) on IL-17A : IL-17RA binding was greater than 100 nM; in experiment [1] (Homo sapiens, Keratinocyte), less than 50 nM.

`CCC(NC(=O)CCC(F)(F)F)c1ccc2[nH]c([C@@H](NC(=O)c3ccnn3C)C3CCC(F)(F)CC3)nc2c1` (single isomer, unassigned) [Example 52, N—((S)-(4,4-Difluorocyclohexyl)(5-((S*)-1-(4,4,4-trifluorobutanamido)propyl)-1H-benzo[d]imidazol-2-yl)methyl)-1-methyl-1H-pyrazole-5-carboxamide]: the IC50 on IL-17A : IL-17RA binding was greater than 100 nM; in experiment [1] (Homo sapiens, Keratinocyte), greater than 100 nM.

With `CCn1nccc1C(=O)N[C@H](c1nc2cc([C@@H](C)NC(=O)CC(C(F)(F)F)C(F)(F)F)ccc2[nH]1)C1CCC(F)(F)CC1` [Example 127, N—((S)-(4,4-Difluorocyclohexyl)(5-((R)-1-(4,4,4-trifluoro-3-(trifluoromethyl)butanamido)ethyl)-1H-benzo[d]imidazol-2-yl)methyl)-1-ethyl-1H-pyrazole-5-carboxamide], the IC50 at IL-17A : IL-17RA binding was 50 to 100 nM; in experiment [1] (Homo sapiens, Keratinocyte), less than 50 nM.

As for `C[C@@H](NC(=O)CCC(F)(F)F)c1ccc2[nH]c(C(CC(C)(C)C(F)(F)F)NC(=O)c3cnn(CCC(F)(F)F)n3)nc2c1` (single isomer, unassigned) [Example 219, N—((S*)-4,4,4-Trifluoro-3,3-dimethyl-1-(5-((R)-1-(4,4,4-trifluorobutanamido)ethyl)-1H-benzo[d]imidazol-2-yl)butyl)-2-(3,3,3-trifluoropropyl)-2H-1,2,3-triazole-4-carboxamide], the concentration for half-maximal inhibition (IC50) on IL-17A : IL-17RA binding was greater than 100 nM; in experiment [1] (Homo sapiens, Keratinocyte) it was greater than 100 nM.

Take `CC(C)c1scnc1C(=O)N[C@H](c1nc2cc([C@@H](C)NC(=O)CCC(F)(F)F)ccc2[nH]1)C1CCC(F)(F)CC1` [Example 200, N—((S)-(4,4-Difluorocyclohexyl)(5-((R)-1-(4,4,4-trifluorobutanamido)ethyl)-1H-benzo[d]imidazol-2-yl)methyl)-5-isopropylthiazole-4-carboxamide]: the concentration for half-maximal inhibition (IC50) at IL-17A : IL-17RA binding lay within 50 to 100 nM; in experiment [1] (Homo sapiens, Keratinocyte), 50 to 100 nM.

As for `C[C@@H](NC(=O)CCC(F)(F)F)c1ccc2[nH]c([C@@H](NC(=O)c3ncn(CCC(F)F)n3)C3CCC(F)(F)CC3)nc2c1` [Example 40, N—[(S)-(4,4-Difluorocyclohexyl)-[6-[(1R)-1-(4,4,4-trifluorobutanoylamino)ethyl]-1H-benzimidazol-2-yl]methyl]-1-(3,3-difluoropropyl)-1,2,4-triazole-3-carboxamide], the IC50 is greater than 100 nM at IL-17A : IL-17RA binding and greater than 100 nM in experiment [1] (Homo sapiens, Keratinocyte).

As for `CC(C)n1nccc1C(=O)N[C@@H](CC1CC2(C1)CC(F)(F)C2)c1nc2ccc([C@H](NC(=O)CC3CC(F)(F)C3)C3CC3)cc2[nH]1` (stereo partly drawn) [Example 148, N—((S)-1-(6-((R)-Cyclopropyl(2-(3,3-difluorocyclobutyl)acetamido)methyl)-1H-benzo[d]imidazol-2-yl)-2-(6,6-difluorospiro[3.3]heptan-2-yl)ethyl)-1-isopropyl-1H-pyrazole-5-carboxamide], the IC50 at IL-17A : IL-17RA binding is greater than 100 nM; in experiment [1] (Homo sapiens, Keratinocyte), greater than 100 nM.

Consider `C[C@@H](NC(=O)CCC(F)(F)F)c1ccc2[nH]c([C@@H](NC(=O)[C@H]3CC[C@@H]3CF)C3CCC(F)(F)CC3)nc2c1` (single isomer, unassigned) [Example 114], for which the half-maximal inhibitory concentration (IC50) was greater than 100 nM on IL-17A : IL-17RA binding and greater than 100 nM in experiment [1] (Homo sapiens, Keratinocyte).

Turning to `C[C@@H](NC(=O)CCC(F)(F)F)c1ccc2nc([C@@H](NC(=O)c3ccnn3CCC(F)(F)F)C3CCC(F)(F)CC3)[nH]c2c1` [Example 121, N—((S)-(4,4-Difluorocyclohexyl)(6-((R)-1-(4,4,4-trifluorobutanamido)ethyl)-1H-benzo[d]imidazol-2-yl)methyl)-1-(3,3,3-trifluoropropyl)-1H-pyrazole-5-carboxamide], the IC50 at IL-17A : IL-17RA binding was greater than 100 nM; in experiment [1] (Homo sapiens, Keratinocyte), less than 50 nM.

In the case of `CC(C)C(=O)N[C@H](c1nc2cc([C@@H](C)NC(=O)CCC(F)(F)F)ccc2[nH]1)C1CCC(F)(F)CC1` [Example 115, N—((R)-1-(2-((S)-(4,4-Difluorocyclohexyl)(isobutyramido)methyl)-1H-benzo[d]imidazol-5-yl)ethyl)-4,4,4-trifluorobutanamide], the IC50 on IL-17A : IL-17RA binding is greater than 100 nM; in experiment [1] (Homo sapiens, Keratinocyte), greater than 100 nM.

In the case of `C[C@@H](NC(=O)CCC(F)(F)F)c1ccc2[nH]c([C@@H](NC(=O)c3ncnn3C)C3CCC(F)(F)CC3)nc2c1` [Example 31, N—[(S)-(4,4-Difluorocyclohexyl)-[6-[(1R)-1-(4,4,4-trifluorobutanoylamino)ethyl]-1H-benzimidazol-2-yl]methyl]-2-methyl-1,2,4-triazole-3-carboxamide], the IC50 is greater than 100 nM at IL-17A : IL-17RA binding and greater than 100 nM in experiment [1] (Homo sapiens, Keratinocyte).

For `C[C@@H](NC(=O)CCC(F)(F)F)c1ccc2[nH]c([C@@H](NC(=O)c3cc(CCC(F)(F)F)no3)C3CCC(F)(F)CC3)nc2c1` [Example 215, N—((S)-(4,4-Difluorocyclohexyl)(5-((R)-1-(4,4,4-trifluorobutanamido)ethyl)-1H-benzo[d]imidazol-2-yl)methyl)-3-(3,3,3-trifluoropropyl)isoxazole-5-carboxamide], the IC50 on IL-17A : IL-17RA binding is greater than 100 nM; in experiment [1] (Homo sapiens, Keratinocyte) it was greater than 100 nM.

Regarding `Cc1c(C(=O)N[C@H](c2nc3cc([C@@H](C)NC(=O)CCC(F)(F)F)ccc3[nH]2)C2CCC(F)(F)CC2)cnn1CC(F)(F)F` [Example 18, N—[(S)-(4,4-Difluorocyclohexyl)-[6-[(1R)-1-(4,4,4-trifluorobutanoylamino)ethyl]-1H-benzimidazol-2-yl]methyl]-5-methyl-1-(2,2,2-trifluoroethyl)pyrazole-4-carboxamide], the half-maximal inhibitory concentration (IC50) is greater than 100 nM on IL-17A : IL-17RA binding and greater than 100 nM in experiment [1] (Homo sapiens, Keratinocyte).

With `C[C@@H](NC(=O)CCC(F)(F)F)c1ccc2[nH]c([C@@H](NC(=O)c3cnn(CC(F)(F)F)n3)C3CCC(F)(F)CC3)nc2c1` [Example 22, N—[(S)-(4,4-Difluorocyclohexyl)-[6-[(1R)-1-(4,4,4-trifluorobutanoylamino)ethyl]-1H-benzimidazol-2-yl]methyl]-2-(2,2,2-trifluoroethyl)triazole-4-carboxamide], the IC50 at IL-17A : IL-17RA binding is greater than 100 nM; in experiment [1] (Homo sapiens, Keratinocyte), greater than 100 nM.

As to `CC(C)CC(NC(=O)CCC(F)(F)F)c1ccc2[nH]c([C@@H](NC(=O)c3ccnn3C)C3CCC(F)(F)CC3)nc2c1` (single isomer, unassigned) [Example 49, N—((S)-(4,4-Difluorocyclohexyl)(5-((R*)-3-methyl-1-(4,4,4-trifluorobutanamido)butyl)-1H-benzo[d]imidazol-2-yl)methyl)-1-methyl-1H-pyrazole-5-carboxamide], the half-inhibitory concentration (IC50) was greater than 100 nM at IL-17A : IL-17RA binding and less than 50 nM in experiment [1].

For `Cc1nonc1C(=O)N[C@@H](CC(C)(C)C(F)(F)F)c1nc2ccc([C@H](NC(=O)CC(C)C(F)(F)F)C3CC3)cc2[nH]1` (single isomer, unassigned) [Example 179, N—((S)-1-(6-((R)-Cyclopropyl((R*)-4,4,4-trifluoro-3-methylbutanamido)methyl)-1H-benzo[d]imidazol-2-yl)-4,4,4-trifluoro-3,3-dimethylbutyl)-4-methyl-1,2,5-oxadiazole-3-carboxamide], the half-inhibitory concentration (IC50) was less than 50 nM on IL-17A : IL-17RA binding and greater than 100 nM in experiment [1] (Homo sapiens, Keratinocyte).

As for `Cc1c(C(=O)N[C@H](c2nc3cc([C@@H](C)NC(=O)CCC(F)(F)F)ccc3[nH]2)C2CCC(F)(F)CC2)cnn1CCC#N` [Example 17, 1-(2-Cyanoethyl)-N—[(S)-(4,4-difluorocyclohexyl)-[6-[(1R)-1-(4,4,4-trifluorobutanoylamino)ethyl]-1H-benzimidazol-2-yl]methyl]-5-methyl-pyrazole-4-carboxamide], the IC50 on IL-17A : IL-17RA binding was greater than 100 nM; in experiment [1] (Homo sapiens, Keratinocyte) it was greater than 100 nM.

For `C[C@@H](NC(=O)CCC(F)(F)F)c1ccc2[nH]c([C@@H](NC(=O)CC3CC3(F)F)C3CCC(F)(F)CC3)nc2c1` (single isomer, unassigned) [Example 108, N—((R)-1-(2-((S)-(4,4-Difluorocyclohexyl)(2-((S*)-2,2-difluorocyclopropyl)acetamido)methyl)-1H-benzo[d]imidazol-5-yl)ethyl)-4,4,4-trifluorobutanamide], the IC50 (at IL-17A : IL-17RA binding; in experiment [1]) was greater than 100 nM each time.

Usually IC50 stands for the midpoint of a concentration-inhibition curve. Lower therefore signals greater potency.
